For assay [1], the system named is human non-small cell lung cancer NCI-H1975 cell line. The assay can be described thus: SRB proliferation assay, NCI-H1975 cells. The format is cell-based. To be noted: NCI-H1975, SRB, 72 h, read-out: IC50 NCI-H1975. The essentials: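 NCI-H1975 cells in log phase were allowed to adhere for 24 h, then treated with compound in triplicate for 72 h. Cells were TCA-fixed and SRB-stained, with OD read at 515 nm; IC50 derived from growth inhibition versus DMSO control.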
A general note: In SRB staining, fixed cells bind dye roughly in proportion to their protein.

The target in another assay is T1, EGFR^T790M/L858R (Homo sapiens, UniProt P00533, L858R/T790M).
T1 construct: purchased Millipore
Nature of the assay: kinase inhibitory activity test (ELISA), EGFR^T790M/L858R. The format is biochemical. To be noted: ELISA, ATP 5 μM, 1 hour at 37° C. The essentials: (§1)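 ELISA on poly(Glu,Tyr)4:1-coated plates; kinase reaction with 5 μM ATP (final) in 50 mM HEPES pH 7.4, 50 mM MgCl2, 5 mM MnCl2, 0.2 mM Na3VO4, 1 mM DTT, 1 h at 37° C. Phosphotyrosine detected via PY99/HRP and OPD at 490 nm; IC50 by four-parameter fit.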

The target in the next assay is T2, IGF-1R (Homo sapiens, UniProt P08069).
T2 construct: purchased Millipore
Nature of the assay: kinase inhibitory activity test (ELISA), IGF-1R. It is filed as biochemical. Conditions: ATP 5 μM, 1 hour at 37° C. Summed up: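 Poly(Glu,Tyr)4:1-coated plates; kinase reacted 1 h at 37 °C with 5 μM ATP (final) in HEPES pH 7.4 buffer with Mg2+/Mn2+. Phosphotyrosine detected by PY99 and HRP anti-mouse IgG with OPD at 490 nm; IC50 from four-parameter fit.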
In general terms: An ELISA detects its analyte on a solid surface through an enzyme-linked reagent.

In a further assay the target is T3, EGFR^wt (Homo sapiens, UniProt P00533).
T3 construct: purchased Millipore
The assay can be described thus: kinase inhibitory activity test (ELISA), EGFR^WT. Conditions: ATP 5 μM, 1 hour at 37° C. It is filed as biochemical. The essentials:
as §1

Assay [2] deals with human epidermal carcinoma A431 cell line. The assay can be described thus: SRB proliferation assay, A431 cells. The format is cell-based. To be noted: A-431, SRB, 72 h, read-out: IC50 A431. Summed up:
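A431 cells in log phase are allowed to adhere for 24 h, then exposed to compound for 72 h in triplicate alongside DMSO controls. Cells are fixed with cold 10% TCA, stained with SRB, dye is solubilised in 10 mM Tris pH 10.5, and OD is read at 515 nm.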

As usually defined, the IC50 is the point on the concentration scale where inhibition reaches its midpoint.

T1 sequence (P00533 25-1210 T790M/L858R): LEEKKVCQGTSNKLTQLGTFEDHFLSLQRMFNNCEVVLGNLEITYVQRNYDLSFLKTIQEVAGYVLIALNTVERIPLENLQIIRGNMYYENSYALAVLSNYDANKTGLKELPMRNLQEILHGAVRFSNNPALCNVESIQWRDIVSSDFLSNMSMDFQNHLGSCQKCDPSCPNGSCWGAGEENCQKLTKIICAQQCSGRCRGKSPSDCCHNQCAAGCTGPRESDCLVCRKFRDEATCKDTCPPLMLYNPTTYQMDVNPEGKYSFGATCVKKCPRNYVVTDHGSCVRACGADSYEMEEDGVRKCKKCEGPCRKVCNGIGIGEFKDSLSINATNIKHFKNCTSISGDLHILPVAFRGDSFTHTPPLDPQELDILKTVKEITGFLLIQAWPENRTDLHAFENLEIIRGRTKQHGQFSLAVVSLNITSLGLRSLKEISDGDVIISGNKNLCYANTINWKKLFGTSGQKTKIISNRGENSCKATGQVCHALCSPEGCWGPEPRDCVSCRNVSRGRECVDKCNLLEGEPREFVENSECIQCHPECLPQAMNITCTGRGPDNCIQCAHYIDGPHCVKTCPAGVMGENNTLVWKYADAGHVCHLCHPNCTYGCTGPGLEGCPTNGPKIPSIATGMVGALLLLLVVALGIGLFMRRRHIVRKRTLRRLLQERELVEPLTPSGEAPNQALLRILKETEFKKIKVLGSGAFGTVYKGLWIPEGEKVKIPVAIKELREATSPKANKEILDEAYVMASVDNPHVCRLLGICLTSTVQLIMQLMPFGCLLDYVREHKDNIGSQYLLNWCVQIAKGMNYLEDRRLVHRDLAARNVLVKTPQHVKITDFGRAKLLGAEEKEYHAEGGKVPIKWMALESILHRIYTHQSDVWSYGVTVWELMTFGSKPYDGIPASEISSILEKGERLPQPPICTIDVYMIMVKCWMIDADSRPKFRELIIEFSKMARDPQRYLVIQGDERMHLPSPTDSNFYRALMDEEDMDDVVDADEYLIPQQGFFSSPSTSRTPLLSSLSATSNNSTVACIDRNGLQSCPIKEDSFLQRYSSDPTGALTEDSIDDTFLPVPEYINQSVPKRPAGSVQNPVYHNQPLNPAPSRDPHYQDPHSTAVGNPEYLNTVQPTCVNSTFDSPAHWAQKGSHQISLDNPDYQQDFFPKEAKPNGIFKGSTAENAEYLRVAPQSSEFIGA
T2 sequence (P08069 31-1367): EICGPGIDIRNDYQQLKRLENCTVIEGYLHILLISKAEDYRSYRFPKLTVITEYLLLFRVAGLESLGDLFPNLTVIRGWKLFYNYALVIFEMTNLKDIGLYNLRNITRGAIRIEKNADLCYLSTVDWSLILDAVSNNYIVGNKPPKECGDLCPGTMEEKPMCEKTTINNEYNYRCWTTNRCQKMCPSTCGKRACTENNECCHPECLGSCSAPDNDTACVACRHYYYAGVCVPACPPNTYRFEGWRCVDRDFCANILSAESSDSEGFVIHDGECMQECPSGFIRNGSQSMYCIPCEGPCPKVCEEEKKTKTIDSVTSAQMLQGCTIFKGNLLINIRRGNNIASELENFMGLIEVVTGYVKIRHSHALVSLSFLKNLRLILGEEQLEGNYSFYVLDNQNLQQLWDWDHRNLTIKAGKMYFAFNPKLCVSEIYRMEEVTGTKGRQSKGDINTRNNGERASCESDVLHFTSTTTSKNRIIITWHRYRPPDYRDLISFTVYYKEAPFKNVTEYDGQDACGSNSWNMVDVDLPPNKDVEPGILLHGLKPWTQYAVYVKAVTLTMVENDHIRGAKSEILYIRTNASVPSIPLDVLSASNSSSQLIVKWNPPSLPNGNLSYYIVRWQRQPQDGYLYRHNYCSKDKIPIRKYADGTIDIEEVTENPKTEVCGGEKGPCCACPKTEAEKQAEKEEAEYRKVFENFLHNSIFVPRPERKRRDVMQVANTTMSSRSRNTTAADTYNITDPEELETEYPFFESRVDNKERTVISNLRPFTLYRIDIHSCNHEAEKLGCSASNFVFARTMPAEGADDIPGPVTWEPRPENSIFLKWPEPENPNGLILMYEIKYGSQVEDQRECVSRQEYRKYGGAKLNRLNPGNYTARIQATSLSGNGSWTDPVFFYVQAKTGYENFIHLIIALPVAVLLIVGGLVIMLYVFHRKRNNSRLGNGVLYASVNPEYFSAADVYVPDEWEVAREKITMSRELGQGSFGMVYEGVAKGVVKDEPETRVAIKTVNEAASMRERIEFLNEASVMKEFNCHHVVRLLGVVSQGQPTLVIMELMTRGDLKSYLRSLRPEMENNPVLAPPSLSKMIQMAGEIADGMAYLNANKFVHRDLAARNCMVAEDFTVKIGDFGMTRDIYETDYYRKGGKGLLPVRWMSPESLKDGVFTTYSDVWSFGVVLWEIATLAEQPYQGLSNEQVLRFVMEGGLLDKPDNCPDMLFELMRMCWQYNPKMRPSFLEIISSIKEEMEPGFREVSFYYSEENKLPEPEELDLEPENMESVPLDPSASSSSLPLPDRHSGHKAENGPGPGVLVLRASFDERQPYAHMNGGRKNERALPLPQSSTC
T3 sequence (P00533 25-1210): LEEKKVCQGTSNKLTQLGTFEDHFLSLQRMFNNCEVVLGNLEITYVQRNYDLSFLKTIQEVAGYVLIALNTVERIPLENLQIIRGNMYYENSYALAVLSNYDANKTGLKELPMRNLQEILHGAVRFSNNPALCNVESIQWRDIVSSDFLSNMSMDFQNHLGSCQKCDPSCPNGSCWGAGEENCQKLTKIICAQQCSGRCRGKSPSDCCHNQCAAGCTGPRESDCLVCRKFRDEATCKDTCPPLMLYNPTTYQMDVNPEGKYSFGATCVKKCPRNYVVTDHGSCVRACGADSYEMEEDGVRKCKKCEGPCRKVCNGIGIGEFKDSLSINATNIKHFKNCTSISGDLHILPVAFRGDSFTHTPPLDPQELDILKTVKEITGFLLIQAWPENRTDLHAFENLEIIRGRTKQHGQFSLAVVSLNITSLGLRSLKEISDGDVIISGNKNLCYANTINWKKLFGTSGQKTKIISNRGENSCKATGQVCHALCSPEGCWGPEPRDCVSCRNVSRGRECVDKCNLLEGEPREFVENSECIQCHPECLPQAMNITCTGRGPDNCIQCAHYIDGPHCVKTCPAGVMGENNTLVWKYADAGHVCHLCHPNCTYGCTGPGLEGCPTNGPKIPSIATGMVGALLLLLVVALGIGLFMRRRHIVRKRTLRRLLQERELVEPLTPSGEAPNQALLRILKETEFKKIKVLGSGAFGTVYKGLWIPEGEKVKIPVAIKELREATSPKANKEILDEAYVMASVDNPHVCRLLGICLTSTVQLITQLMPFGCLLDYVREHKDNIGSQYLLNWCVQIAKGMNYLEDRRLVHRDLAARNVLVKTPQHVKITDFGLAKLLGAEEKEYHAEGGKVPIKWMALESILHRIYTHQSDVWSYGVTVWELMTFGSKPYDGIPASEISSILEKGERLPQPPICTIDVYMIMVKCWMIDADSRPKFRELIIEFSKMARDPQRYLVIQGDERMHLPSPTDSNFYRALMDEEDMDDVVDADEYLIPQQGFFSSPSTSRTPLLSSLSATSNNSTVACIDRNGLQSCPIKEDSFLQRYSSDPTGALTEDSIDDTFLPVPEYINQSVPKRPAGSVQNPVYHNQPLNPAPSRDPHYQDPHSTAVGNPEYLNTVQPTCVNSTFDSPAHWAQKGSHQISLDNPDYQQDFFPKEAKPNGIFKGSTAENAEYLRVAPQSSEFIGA

Regarding `COc1ccc(NC(=O)/C=C/CN(C)C)cc1Nc1ncc(C#N)c(Nc2ccc3ccccc3c2)n1` [CCB145293, (E)-N-((3-((5-cyano-4-((naphthalen-2-yl)amino))pyrimidin-2-yl)amino)-4-methoxyphenyl)-4-(dimethylamino)-2-butenamide], the IC50 in assay [1] came out at 327 nM; against EGFR^T790M/L858R, 22.6 nM; against IGF-1R it was 193 nM; on EGFR^wt, 173 nM; in assay [2], 1300 nM.
As for `COc1ccc(NC(=O)/C=C/CN(C)C)cc1Nc1ncc(Cl)c(N(C)c2ccc3ccccc3c2)n1` [CCB145295, (E)-N-((3-((5-chloro-4-(N-methyl-(naphthalen-2-yl)amino))pyrimidin-2-yl)amino)-4-methoxyphenyl)-4-(dimethylamino)-2-butenamide], the concentration for half-maximal inhibition (IC50) in assay [1] was 1180 nM; at EGFR^T790M/L858R it was 47.2 nM; on IGF-1R, > 1000 nM; against EGFR^wt, 93.9 nM; in assay [2], 1080 nM.
As to `CN(C)C/C=C/C(=O)Nc1ccc(F)c(Nc2ncc(Cl)c(Nc3ccc4ccccc4c3)n2)c1` [CCB145329], the IC50 in assay [1] came to 1060 nM; against EGFR^T790M/L858R, 55.7 nM; at IGF-1R it was 198 nM; at EGFR^wt, 1400 nM; in assay [2], 20500 nM.
Take `CN(C)C/C=C/C(=O)Nc1ccc(F)c(Nc2ncc(Br)c(Nc3ccc4ccccc4c3)n2)c1` [CCB145330, (E)-N-((3-((5-bromo-4-((naphthalen-2-yl)amino))pyrimidin-2-yl)amino)-4-fluorophenyl)-4-(dimethylamino)-2-butenamide]: the IC50 in assay [1] was 948 nM; against EGFR^T790M/L858R, 32.4 nM; on IGF-1R it was 146 nM; at EGFR^wt, 4150 nM; in assay [2] it was 12800 nM.
As for `CN(C)C/C=C/C(=O)Nc1cccc(Nc2ncc(Cl)c(Nc3ccc4ccccc4c3)n2)c1` [CCB145333, (E)-N-((3-((5-chloro-4-((naphthalen-2-yl)amino))pyrimidin-2-yl)amino)phenyl)-4-(dimethylamino)-2-butenamide], the IC50 in assay [1] was 632 nM; at EGFR^T790M/L858R, 24.2 nM; on IGF-1R, 170 nM; against EGFR^wt, 4750 nM; in assay [2], 6220 nM.
For the compound `CN(C)C/C=C/C(=O)Nc1cccc(Nc2ncc(Br)c(Nc3ccc4ccccc4c3)n2)c1` [CCB145335, (E)-N-((3-((5-bromo-4-((naphthalen-2-yl)amino))pyrimidin-2-yl)amino)phenyl)-4-(dimethylamino)-2-butenamide], the half-inhibitory concentration (IC50) in assay [1] came to 2480 nM; at EGFR^T790M/L858R it was 35.7 nM; against IGF-1R, 90.6 nM; on EGFR^wt, 3890 nM; in assay [2], 2590 nM.
For `Cc1ccc(NC(=O)/C=C/CN(C)C)cc1Nc1ncc(Br)c(Nc2ccc3ccccc3c2)n1` [CCB145339, (E)-N-((3-((5-bromo-4-((naphthalen-2-yl)amino))pyrimidin-2-yl)amino)-4-methylphenyl)-4-(dimethylamino)-2-butenamide], in that order: 959 nM, 73.2 nM, 48.3 nM, 4480 nM and 2190 nM.
For `Cc1ccc(NC(=O)/C=C/CN(C)C)cc1Nc1ncc(Cl)c(Nc2ccc3ccccc3c2)n1` [CCB145340] the same measures were 864 nM, 28.7 nM, 117 nM, 2220 nM and 1610 nM.
For `Cc1cc(NC(=O)/C=C/CN(C)C)cc(Nc2ncc(Br)c(Nc3ccc4ccccc4c3)n2)c1` [CCB145342, (E)-N-((3-((5-bromo-4-((naphthalen-2-yl)amino))pyrimidin-2-yl)amino)-5-methylphenyl)-4-(dimethylamino)-2-butenamide], in that order: 1260 nM, 44.2 nM, 127 nM, 1880 nM and 942 nM.
Turning to `Cc1cc(NC(=O)/C=C/CN(C)C)cc(Nc2ncc(Cl)c(Nc3ccc4ccccc4c3)n2)c1` [CCB145344, (E)-N-((3-((5-chloro-4-((naphthalen-2-yl)amino))pyrimidin-2-yl)amino)-5-methylphenyl)-4-(dimethylamino)-2-butenamide], the IC50 in assay [1] turned out to be 925 nM; at EGFR^T790M/L858R it was 46.3 nM; on IGF-1R it was 36 nM; against EGFR^wt, 613 nM; in assay [2], 775 nM.
For `Cc1ccc(Nc2ncc(Cl)c(Nc3ccc4ccccc4c3)n2)cc1NC(=O)/C=C/CN(C)C` [CCB145346, (E)-N-((5-((5-chloro-4-((naphthalen-2-yl)amino))pyrimidin-2-yl)amino)-2-methylphenyl)-4-(dimethylamino)-2-butenamide], in that order: 598 nM, 56.2 nM, 200 nM, 1150 nM and 1040 nM.
For `Cc1ccc(Nc2ncc(Br)c(Nc3ccc4ccccc4c3)n2)cc1NC(=O)/C=C/CN(C)C` [CCB145348, (E)-N-((5-((5-bromo-4-((naphthalen-2-yl)amino))pyrimidin-2-yl)amino)-2-methylphenyl)-4-(dimethylamino)-2-butenamide], in that order: 1100 nM, 42.5 nM, 157 nM, 470 nM and 4660 nM.
For `CCOc1ccc(NC(=O)/C=C/CN(C)C)cc1Nc1ncc(Cl)c(Nc2ccc3ccccc3c2)n1` [CCB145373, (E)-N-((3-((5-chloro-4-((naphthalen-2-yl)amino))pyrimidin-2-yl)amino)-4-ethoxyphenyl)-4-(dimethylamino)-2-butenamide], the concentration for half-maximal inhibition (IC50) was determined as 1180 nM in assay [1]; 25.6 nM at EGFR^T790M/L858R; 163 nM at IGF-1R; 1460 nM at EGFR^wt; 6260 nM in assay [2].
Regarding `CCOc1ccc(NC(=O)/C=C/CN(C)C)cc1Nc1ncc(Br)c(Nc2ccc3ccccc3c2)n1` [CCB145374, (E)-N-((3-((5-bromo-4-((naphthalen-2-yl)amino))pyrimidin-2-yl)amino)-4-ethoxyphenyl)-4-(dimethylamino)-2-butenamide], the IC50 was 2820 nM in assay [1]; 11.3 nM at EGFR^T790M/L858R; 86.4 nM at IGF-1R; 2830 nM against EGFR^wt; 4470 nM in assay [2].
For `COc1cc(F)c(NC(=O)/C=C/CN(C)C)cc1Nc1ncc(Cl)c(Nc2ccc3ccccc3c2)n1` [CCB145380, (E)-N-((5-((5-chloro-4-((naphthalen-2-yl)amino))pyrimidin-2-yl)amino)-2-fluoro-4-methoxyphenyl)-4-(dimethylamino)-2-butenamide], in that order: 429 nM, 6.7 nM, 195 nM, 1060 nM and 1670 nM.
On to `COc1cc(F)c(NC(=O)/C=C/CN(C)C)cc1Nc1ncc(Br)c(Nc2ccc3ccccc3c2)n1` [CCB145381, (E)-N-((5-((5-bromo-4-((naphthalen-2-yl)amino))pyrimidin-2-yl)amino)-2-fluoro-4-methoxyphenyl)-4-(dimethylamino)-2-butenamide], for which the concentration for half-maximal inhibition (IC50) in assay [1] worked out at 508 nM; on EGFR^T790M/L858R, 7.5 nM; at IGF-1R, 102 nM; at EGFR^wt it was 3540 nM; in assay [2], 1790 nM.
For `CC(C)Oc1ccc(NC(=O)/C=C/CN(C)C)cc1Nc1ncc(Cl)c(Nc2ccc3ccccc3c2)n1` [CCB145384, (E)-N-((3-((5-chloro-4-((naphthalen-2-yl)amino))pyrimidin-2-yl)amino)-4-isopropoxyphenyl)-4-(dimethylamino)-2-butenamide] the same measures were 1970 nM, 266 nM, 272 nM, 2680 nM and 671 nM.
For `CC(C)Oc1ccc(NC(=O)/C=C/CN(C)C)cc1Nc1ncc(Br)c(Nc2ccc3ccccc3c2)n1` [CCB145385, (E)-N-((3-((5-bromo-4-((naphthalen-2-yl)amino))pyrimidin-2-yl)amino)-4-isopropoxyphenyl)-4-(dimethylamino)-2-butenamide], in that order: 5740 nM, 177 nM, 316 nM, 3620 nM and 7580 nM.
